US11801252B2, “Pharmaceutical composition” (Jiangsu Hengrui Medicine Co., Ltd., priority 2021, dated 2023)
Values joined by “and” are separate entries in the source; they are usually repeats but may differ in a detail not shown here. Equal values may be shown once. Read-outs that look alike come from different tables or passages of the source.

Tests used:
[1] = In vivo pharmacokinetics study in healthy subjects, 75-450 mg single dose, fasting (Test Example 2); design: species or system human (healthy male subjects); details: for CLz/F of SNAC / t1/2z of SNAC / λz of SNAC / AUC—% Extrap of SNAC / MRT last / MRT inf / AUC(0-inf) / Cmax / AUC(0-t) / Vd/F / Tmax: single oral, fasting, healthy male subjects; for CLz/F of SNAC / t1/2z of SNAC / λz of SNAC / AUC—% Extrap of SNAC / MRT last / MRT inf / AUC(0-inf) / Cmax / AUC(0-t) / Vd/F: Mean ± SD; for MRT last / MRT inf / AUC(0-inf) / Cmax / AUC(0-t) / Vd/F / Tmax: human; for MRT last: read-out: MRT0-t of SNAC; for MRT inf: read-out: MRT0-∞ of SNAC; for AUC(0-inf): read-out: AUC0-∞ of SNAC; for AUC(0-t): read-out: AUC0-t of SNAC; for Vd/F: read-out: Vz/F of SNAC; for Tmax: median
Method: To study the pharmacokinetic characteristics of 75 mg, 150 mg, 300 mg and 450 mg doses of abiraterone acetate tablets in healthy subjects after a single oral administration under fasting state.
A single-center, open-label, sequential trial design was applied. A total of 16 healthy male subjects were planned to be enrolled in the study, who entered the four dose groups sequentially and the washout period of each dose group was seven days. Blood samples were collected at a series of time points, and safety test was performed. The blood concentration of abiraterone at different time points after dosing was determined by HPLC-MS/MS. Pharmacokinetic parameters were calculated using non-compartmental model and statistically analyzed.
The subjects were admitted to the ward before dinner on the day before the administration of each studied dose. […] They were fasting for at least 10 hours before dosing. According to the trial protocol, subjects were given a single oral administration of the investigational drug, abiraterone acetate tablets, 75 mg (split 150 mg tablet along the score line into half a tablet), 150 mg (150 mg×1 tablet), 300 mg (150 mg×2 tablets) and 450 mg (150 mg×3 tablets) with 240 mL water under fasting state in the morning on the day of trial of each dose group. Liquid was prohibited before administration and within 1 h after administration, and standard lunch and dinner (a standardized light diet) were taken about 4 and 10 h after administration.
Test Formulation (T): Abiraterone acetate tablets (Formulation 5), specification: 150 mg.
PKPS (PKPS, all enrolled in the group and receiving the study drug, at least one subject with analyzable PK parameters during the trial) was used for the statistical analysis of pharmacokinetic parameters.
The linearity between AUC and Cmax and the administration dose was analyzed by confidence interval method, and linear regression analysis was performed on the AUC and Cmax after natural logarithmic transformation respectively and the administration dose, to observe the slope of the linear regression equation and 90% confidence interval.

[2] = stated without source; cited from earlier work
[3] = Pharmacokinetics study in male cynomolgus monkeys (Test Example 1); type: in vivo; details: cynomolgus monkey, plasma, po, 300 mg/animal, after Formulation 2 (2 tablets, 300 mg/animal) PO, mean ± SD; for AUC(0-inf): n = 8, read-out: AUC(0-∞) of SNAC in plasma; for Cmax: n = 8, read-out: Cmax of SNAC in plasma; for half-life: n = 8, read-out: T1/2 of SNAC in plasma (converted); for Tmax: n = 8, read-out: Tmax of SNAC in plasma; for AUC(0-t): t = 24 h, n = 8, read-out: AUC(0-t) of SNAC in plasma
Method: Eight male cynomolgus monkeys were administered by single oral gavage, including 4 cycles, 5 days per cycle, 20 days in total (see Table 4 for the protocol).
The animals in cycle I and II were fasted before administration, while the animals in cycle III and IV were given high-fat food before administration. Animals in cycle I and III were given 300 mg of Formulation 2 (2 tablets of abiraterone acetate, T, comprising 300 mg of abiraterone), while animals in cycle II and IV were given 1000 mg of reference preparation (4 tablets of abiraterone acetate Zytiga®, R). Blood samples were collected before administration or at 0.25, 0.5, 1, 1.5, 2, 2.5, 3, 4, 8, 12 and 24 hours after administration. The validated LC-MS/MS method was used to determine the concentrations of abiraterone and SNAC in plasma samples. Only abiraterone was detected for those given reference preparation, while abiraterone and SNAC were both detected for those given test formulations. The main pharmacokinetic parameters were calculated according to the concentrations of abiraterone and SNAC in plasma using Phoenix WinNonlin® 7.0 software. The main pharmacokinetic data of abiraterone in plasma in cycles I-IV are shown in Table 5, and the main pharmacokinetic data of SNAC in plasma in cycles I and III are shown in Table 6.

[4] = after Formulation 5, dose group A 75 mg (equal SNAC content), N = 16
[5] = after Formulation 5, dose group B 150 mg (equal SNAC content), N = 15
[6] = after Formulation 5, dose group C 300 mg (equal SNAC content), N = 15
[7] = after Formulation 5, dose group D 450 mg (equal SNAC content), N = 15
[8] = dose range 75-450 mg of test formulation, confidence interval method, N = 16
[9] = blood, after Formulation 5, dose group A 75 mg (equal SNAC content), N = 16
[10] = blood, after Formulation 5, dose group B 150 mg (equal SNAC content), N = 15
[11] = blood, after Formulation 5, dose group C 300 mg (equal SNAC content), N = 15
[12] = blood, after Formulation 5, dose group D 450 mg (equal SNAC content), N = 15
[13] = plasma, after Formulation 5, dose group A 75 mg (equal SNAC content), N = 16
[14] = plasma, after Formulation 5, dose group B 150 mg (equal SNAC content), N = 15
[15] = plasma, after Formulation 5, dose group C 300 mg (equal SNAC content), N = 15
[16] = plasma, after Formulation 5, dose group D 450 mg (equal SNAC content), N = 15

In the case of `O=C([O-])CCCCCCCNC(=O)c1ccccc1O.[Na+]` [SNAC, sodium 8-(salicylamido)caprylate], the “CLz/F of SNAC” value [1, 4] is reported as 2.66 ×10^2 L · h^−1 and 2.66 ± 0.64 ×10^2 L · h^−1, the “t1/2z of SNAC” value [1, 4] is reported as 3.53 h and 3.53 ± 2.54 h and the “λz of SNAC” value [1, 4] is reported as 0.28 ± 0.14 h⁻¹. For the same compound, the “AUC—% Extrap of SNAC” value [1, 5] was 0.63 ± 0.62%, the “CLz/F of SNAC” value [1, 5] was 2.36 ×10^2 L · h^−1 and 2.36 ± 0.62 ×10^2 L · h^−1 and the “t1/2z of SNAC” value [1, 5] was 2.94 h and 2.94 ± 1.39 h. The “λz of SNAC” value [1, 5] was 0.29 ± 0.14 h⁻¹, the “AUC—% Extrap of SNAC” value [1, 6] was 0.95 ± 0.91% and the “CLz/F of SNAC” value [1, 6] was 2.22 ×10^2 L · h^−1 and 2.22 ± 0.51 ×10^2 L · h^−1. The “t1/2z of SNAC” value [1, 6] was 5.35 h and 5.35 ± 3.92 h, the “λz of SNAC” value [1, 6] was 0.19 ± 0.11 h⁻¹ and the “AUC—% Extrap of SNAC” value [1, 7] was 0.50 ± 0.44%. For the same compound, the “CLz/F of SNAC” value [1, 7] was 2.22 ×10^2 L · h^−1 and 2.22 ± 0.51 ×10^2 L · h^−1, the “t1/2z of SNAC” value [1, 7] was 4.88 h and 4.88 ± 2.37 h and the “λz of SNAC” value [1, 7] was 0.18 ± 0.09 h⁻¹. The “Slope of the linear regression equation (β), LnAUC0-t of SNAC vs dose” value [1, 8] was 1.10, the “Slope of the linear regression equation (β), LnAUC0-∞ of SNAC vs dose” value [1, 8] was 1.10 and the “Slope of the linear regression equation (β), LnCmax of SNAC vs dose” value [1, 8] was 1.00. It also gave an MRT last [1, 9] of 1.32 ± 0.52 h, an MRT inf [1, 9] of 1.58 ± 0.76 h and an MRT last [1, 10] of 1.21 ± 0.48 h. The MRT inf [1, 10] was 1.32 ± 0.5 h, the MRT last [1, 11] was 1.28 ± 0.36 h and the MRT inf [1, 11] was 1.55 ± 0.54 h. It also gave an AUC(0-inf) [1, 12] of 2130 ± 491 ng·h/mL, an MRT last [1, 12] of 1.4 ± 0.53 h and an MRT inf [1, 12] of 1.53 ± 0.51 h. It also gave a Cmax [1, 13] of 407 ng/mL, an AUC(0-t) [1, 13] of 291 ng·h/mL and an AUC(0-inf) [1, 13] of 295 ± 61.4 ng·h/mL. For the same compound, the Vd/F [1, 13] was 1280 L, the Cmax [1, 14] was 977 ng/mL and the AUC(0-t) [1, 14] was 668 ng·h/mL. The AUC(0-inf) [1, 14] was 672 ± 152 ng·h/mL, the Vd/F [1, 14] was 1010 L and the Tmax [1, 14] was 0.5 h. It also gave a Cmax [1, 15] of 1870 ng/mL, an AUC(0-inf) [1, 15] of 1410 ± 285 ng·h/mL and a Vd/F [1, 15] of 1740 L. The Tmax [1, 15] was 0.5 h, the Cmax [1, 16] was 2460 ng/mL and the AUC(0-t) [1, 16] was 2120 ng·h/mL. The Vd/F [1, 16] was 1520 L, the Tmax [1, 16] was 0.5 h and the PKA [2] was 5.0. For the same compound, the AUC(0-inf) ([3]; fasting) was 40900 ± 10600 ng·h/mL, the Cmax ([3]; fasting) was 34200 ± 18000 ng/mL and the half-life ([3]; fasting) was 3.16 ± 0.93 h. For the same compound, the Tmax ([3]; fasting) was 0.72 ± 0.49 h, the AUC(0-inf) ([3]; high fat diet) was 18700 ± 5620 ng·h/mL and the Cmax ([3]; high fat diet) was 4660 ± 2400 ng/mL. The half-life ([3]; high fat diet) was 2.71 ± 0.74 h, the Tmax ([3]; high fat diet) was 2.88 ± 0.74 h and the AUC(0-t) ([3]; fasting) was 40300 ± 10400 ng·h/mL. For the same compound, the AUC(0-t) ([3]; high fat diet) was 18400 ± 5740 ng·h/mL.
